This is an account of results in US4692517A, “C-3' acylaminooxy-7-[(2-aminothiazol-4-yl)-α-(substituted-oximino)acety l]cephalosporin derivatives” (American Home Products Corporation, priority 1986, dated 1987).

≈ marks a conversion by molar mass, not a printed value.

Assay type in all cases: cell-based
Assay [1] has as its system Klebsiella pneunomiae KL-1. Nature of the assay: Agar dilution MIC, Klebsiella pneunomiae KL-1. The conditions noted are these: KL1, 18 hours at 35° C., read-out: Minimal Inhibitory Concentration (MIC). The procedure: (§1) The compounds of the invention are tested for their antibacterial activity. The test is carried out as follows:
(§2) The organisms used in the test comprise the following:
(§3) Staphylococcus aureus (penicillin-sensitive and resistant), Pseudomonas aeruginosa, Escherichia coli, […] pneumoniae, Bordetella bronchiseptica, Proteus vulgaris, P. mirabilis, Acinetobacter calcoaceticus.
(§4) Test organisms may be added or deleted in order to reflect current clinical patterns of antibiotic susceptibility or shifts in pathogenic potential.
(§5) Organisms are normally grown for 18 hours in Brain Heart Infusion at 35° C. Cultures are adjusted with saline to MacFarland No. 1.5 standard prior to use.
(§6) Stock concentrations (e.g. 2,500 μg or units per ml) are prepared in a suitable vehicle. Two-fold dilutions are made. One ml quantities of each dilution are incorporated in 9 ml of the appropriate agar (e.g. Seed) in sterile Petri plates. The hardened surface is inoculated with test organisms by use of a Steers replicating device. The plates are incubated (e.g. 18 hours at 35° C.) and activity is determined.
On the technique in general: Agar dilution tests growth on a series of plates holding different concentrations.

Assay [2] concerns Pseudomonas aeruginosa ATCC 27853. Nature of the assay: Agar dilution MIC, Pseudomonas aeruginosa ATCC 27853. The conditions noted are these: ATCC27853, 18 hours at 35° C., read-out: Minimal Inhibitory Concentration (MIC). The procedure:
as §1, §2, §3, §4, §5, §6

For assay [3], the system named is Serratia marcescens ATCC 13880. Nature of the assay: Agar dilution MIC, Serratia marcescens ATCC 13880. The conditions noted are these: ATCC13880, 18 hours at 35° C., read-out: Minimal Inhibitory Concentration (MIC). The procedure:
as §1, §2, §3, §4, §5, §6

In assay [4] the test system is Streptococcus faecalis ATCC 29212. The experiment in a line: Agar dilution MIC, Streptococcus faecalis ATCC 29212. The conditions noted are these: Enterococcus faecalis, ATCC29212, 18 hours at 35° C., read-out: Minimal Inhibitory Concentration (MIC). As to the method:
as §1, §2, §3, §4, §5, §6

In assay [5] the test system is Proteus vulgaris A 84354 1. The experiment in a line: Agar dilution MIC, Proteus vulgaris A 84354 1. Particulars: A843541, 18 hours at 35° C., read-out: Minimal Inhibitory Concentration (MIC). As to the method: as §1, §2, §3, §4, §5, §6
In assay [6] the test system is Enterobacter cloacae ATCC 13047. Nature of the assay: Agar dilution MIC, Enterobacter cloacae ATCC 13047. The conditions noted are these: ATCC13047, 18 hours at 35° C., read-out: Minimal Inhibitory Concentration (MIC). The procedure:
as §1, §2, §3, §4, §5, §6

Assay [7] relates to Escherichia coli ATCC 25922. The experiment in a line: Agar dilution MIC, Escherichia coli ATCC 25922. Particulars: ATCC25922, 18 hours at 35° C., read-out: Minimal Inhibitory Concentration (MIC). The procedure: as §1, §2, §3, §4, §5, §6
Assay [8] concerns Staphylococcus aureus ATCC 29213. Nature of the assay: Agar dilution MIC, Staphylococcus aureus ATCC 29213. The conditions noted are these: ATCC29213, 18 hours at 35° C., read-out: Minimal Inhibitory Concentration (MIC). As to the method:
as §1, §2, §3, §4, §5, §6

In the case of `CO/N=C(\C(=O)N[C@@H]1C(=O)N2C(C(=O)OC(C)(C)C)=C(CONC(=O)OC(C)(C)C)CS[C@H]12)c1csc(N)n1` [Example 1B, (6R,7R)-7-[[(Z)-(2-amino-4-thiazolyl)(methoxyimino)acetyl]amino]-3-[[[[(1,1-dimethylethoxy)carbonyl]amino]oxy]methyl]-8-oxo-5-thia-1-azabicyclo[4.2.0]oct-2-ene-2-carboxylic acid 1,1-dimethylethyl ester], the MIC in assay [1] came to 1 µg/mL (≈ 1.71 µM); in assay [2], 128 µg/mL (≈ 219 µM); in assay [3], 16 µg/mL (≈ 27.4 µM); in assay [4] it was 128 µg/mL (≈ 219 µM); in assay [5] it was 1 µg/mL (≈ 1.71 µM); in assay [6], 32 µg/mL (≈ 54.7 µM). In addition, the MIC in assay [7] came out at 4 µg/mL (≈ 6.84 µM); in assay [8], 64 µg/mL (≈ 109 µM).
